# Source: patent US12528776B2, “Composition and method for treating dermatological disorders using retinamides” (UNIVERSITY OF MARYLAND, Baltimore, priority 2019, dated 2026)
# Read-outs that look alike come from different tables or passages of the source.
# Key:
# [1] = tested on: reconstructed human epidermis (RHE); test: Reconstructed human epidermis (RHE) histology, H and E; format: cell-based; settings: 0.02% topical, 3 days at 37° C.
# Protocol: RHE tissues were treated with indicated concentration and incubated for 3 days at 37° C. Following treatment tissues were fixed, sectioned and stained with H and E. Representative images from three independent experiments are shown in FIG. 5A to 5E. RHE tissues were untreated (FIG. 5A) or treated with vehicle (ethanol) (FIG. SB), ATRA 0.02% solution (FIG. 5C), 13-CRA 0.02% (FIG. 5D); and VNLG-152 0.02% (FIG. 5E). […] In the figures, “SC” refers to “stratum corneum”, “SG” to “stratum granulosum”, “SS” to “stratum spinosum”, and “SB” to “stratum basale”.
# [2] = tested on: adult normal human keratinocytes (NHAKs); test: Growth inhibition (MTT) of adult normal human keratinocytes; format: cell-based; settings: for GI50: Homo sapiens, Keratinocyte; for fold more potent inhibition of growth than 13-CRA (isotretinoin), NHAKs: ratio of GI50 values versus 13-CRA
# [3] = tested on: immortalized human sebocytes SZ95; settings: after 9 days; cited from earlier work
# NHAK cells = test: Anti-proliferative effect of ATRA or 13-CRA alone or combined with low-dose VNLG-152; format: cell-based, human; settings: for GI50: Homo sapiens, alone, 0.1 to 10,000 nM, continuous incubation, read-out: GI50, ATRA or 13-CRA alone (Example 2); for fold enhancement of anti-proliferative activity (GI50) by VNLG-152: in combination with 40 nM VNLG-152, NHAK
# [4] = tested on: keratin 10 (K10), keratin 19 (K19) and filaggrin expression in RHE cultures; test: RHE immunostaining for K10, K19 and filaggrin; settings: 0.02% topical, 3 days, immunolabelling
# retinoic acid metabolism = settings: racemate versus enantiomers; cited from earlier work
# RARα,β,γ receptors = settings: significantly less potent than ATRA; cited from earlier work
# [5] = tested on: triple negative breast cancer (TNBC) tumor; settings: in vivo; cited from earlier work
# [6] = tested on: SEB-1 human primary sebocytes; test: Growth inhibition (MTT) of SEB-1 sebocytes; format: cell-based; settings: for GI50: Homo sapiens, 168 h, MTT assay, 7 days treatment; for fold more potent inhibition of growth than 13-CRA (isotretinoin), SEB-1: ratio of GI50 values versus 13-CRA
# Protocol: Human adult keratinocytes (pooled) (ZenBio Inc., Research Triangle Park, NC) were cultured in human adult keratinocyte growth medium (KM-2). The SEB-1 human primary sebocytes (ZenBio Inc., Research Triangle Park, NC) were cultured and maintained in sebocyte growth medium. Cells were plated 1 day prior to treatment. Retinamides (VNLG-152 and VNHM-1-73) and other clinically relevant retinoids (13-CRA, 9-CRA, and ATRA) were treated at indicated concentration and time periods and incubated at 37° C. in 5% CO2.
# Assays for normal human adult keratinocytes (NHAKs) and human SEB-1 sebocytes growth inhibition were performed as described previously^20. Adult human keratinocytes or sebocytes were treated with VNLG-152,VNHM-1-73 and other retinoids for 7 days. MTT assay was performed at the end of the experiment. Results represent the mean±standard deviation of three independent experiments.
# [7] = tested on: mTORC1/4E-BP1/p70SK6 signaling; settings: cited from earlier work
# NHAK = test: TUNEL (in situ cell death detection) apoptosis assay; format: cell-based, human; settings: 72 hours
# Protocol: (§1) For acridine orange/ethidium bromide (AO/EB) dual staining assay, keratinocytes were treated with indicated concentrations of the compounds for 24.48 and 72 h. At the end of incubation period, 100 μl of 1:1 ratio of acridine orange (0.1%) and ethidium bromide (0.2%) in PBS were added to the cells and incubated at 37° C. and 5% CO2 for 30 min. Cells were then immediately analyzed using Nikon TE2000 fluorescence microscope. Assessment of the apoptotic potential by in situ Cell Death Detection assay was done as per protocol of the manufacturer (Roche Diagnostics).
# The apoptosis inducing potential of VNLG-152 was evaluated by TUNEL assay in NHAK. The individual cell lines as indicated were seeded in 8 well chamber slides, and treated with indicated concentrations and times of 13-CRA, ATRA and VNLG-/152. After 72 hours, the plates were analyzed for TUNEL positive staining. Statistical analysis was performed with ANOVA two factor with replication (*P<0.05, **P<0.01, ***P<0.001).
# keratinocytes = test: Acridine orange/ethidium bromide (AO/EB) dual staining apoptosis assay; format: cell-based, human; settings: VNLG-152 0.2 μM, 48 and 72 h; versus 13-CRA and ATRA 5 and 10 μM
# Protocol: as §1
# In FIGS. 3A and 3B, the plates were analyzed for early apoptotic and viable cells using acridine orange/ethidium bromide staining. […] In FIG. 3C, the bars are means of three replicate determinations plus standard deviations. Statistical analysis was performed with ANOVA two factor with replication (*P<0.05, **P<0.01, ***P<0.001).
# [8] = tested on: castration-resistant prostate cancer xenograft; settings: in vivo; cited from earlier work
# [9] = read-out: GI50 values in inhibiting NHAKs and sebocytes (range over both cell types)
# [10] = 168 h, MTT assay, 7 days treatment, read-out: GI50, growth and proliferation of adult keratinocytes (NHAKs)
structure (smiles),measurement,setting,value
"CC1=C(/C=C/C(C)=C/C=C/C(C)=C\C(=O)O)C(C)(C)CCC1 [Compound 13-CRA, 13-cis-retinoic acid]",RHE morphology after topical treatment,[1],loss of keratohyalin granules in the upper granular layer
same,GI50,[2]; [9],26000 to 96400 nM
same,reduction of proliferation of SZ95 sebocytes,[3],approximately 50%
same,GI50,NHAK cells,75800 nM
same,fold enhancement of anti-proliferative activity (GI50) by VNLG-152,NHAK cells,123 fold
"CC1=C(/C=C/C(C)=C/C=C/C(C)=C/C(=O)O)C(C)(C)CCC1 [ATRA, all-trans-retinoic acid]",RHE morphology after topical treatment,[1],loss of keratohyalin granules in the upper granular layer
same,reduction of proliferation of SZ95 sebocytes,[3],approximately 50%
same,expression of K10 and filaggrin in sb and sg layers of RHE,[4],reduced the expression of these proteins
same,GI50,NHAK cells,63100 nM
same,fold enhancement of anti-proliferative activity (GI50) by VNLG-152,NHAK cells,200 fold
COC(=O)/C=C(C)/C=C/C=C(C)/C=C/C1=C(C)C(n2ccnc2)CCC1(C)C (racemic) [(±)-VN-12-1],fold more potent than either pure (4S)-(+)- or (4R)-(−)- enantiomer,retinoic acid metabolism,up to 28 fold
CC1=C(/C=C/C(C)=C/C=C/C(C)=C/C(=O)O)C(C)(C)CCC1n1ccnc1 (centres unmarked) [VN/14-1],RAR binding and activation,"RARα,β,γ receptors","binds and activates the RARα,β,γ receptors"
CC1=C(/C=C/C(C)=C/C=C/C(C)=C/C(=O)Nc2ccc(F)cc2)C(C)(C)CCC1n1ccnc1 (centres unmarked) [VNLG-152],RHE morphology after topical treatment,[1],loss of keratohyalin granules in the upper granular layer
same,effect on TNBC tumor growth and metastasis,[5],potently inhibits triple negative breast cancer (TNBC) tumor growth and metastasis
same,GI50,[6],66 nM
same,"fold more potent inhibition of growth than 13-CRA (isotretinoin), SEB-1",[6],603 fold
same,times more potent than 13-CRA in reducing the growth of SEB-1 sebocytes,[6]; versus 13-CRA,about 35 times
same,GI50,[2]; [10],239 nM
same,GI50,[2]; [9],66 to 239 nM
same,"fold more potent inhibition of growth than 13-CRA (isotretinoin), NHAKs",[2],317.4 fold
same,expression of K10 and filaggrin in sb and sg layers of RHE,[4],reduced the expression of these proteins
same,anti-proliferative effect at low dose,"NHAK cells; 40 nM VNLG-152 alone, NHAK",< 10%
same,inhibition of mTORC1 signaling,[7],potently inhibits mTORC1/4E-BP1/p70SK6 signaling
same,induction of apoptosis versus control (TUNEL),NHAK; 0.2 μM,~50%
same,induction of apoptosis (TUNEL),NHAK; 1 μM,~84%
same,"pro-apoptotic effect, AO/EB dual staining",keratinocytes,strong pro-apoptotic effects
same,effect on castration-resistant prostate cancer xenograft growth,[8],suppress EMT and castration-resistant prostate cancer xenograft growth
"CC1=C(/C=C/C(C)=C\C=C\C(C)=C\C(=O)O)C(C)(C)CCC1 [Compound 9-CRA, 9-cis-retinoic acid]",reduction of proliferation of SZ95 sebocytes,[3],approximately 50%
"CC1=C(/C=C/C(C)=C/C=C/C(C)=C\C(=O)NCc2ccc(O)cc2)C(C)(C)CCC1n1ccnc1 (centres unmarked) [VNHM-1-73, (2Z,4E,6E,8E)-9-(3-(1H-imidazol-1-yl)-2,6,6-trimethylcyclohex-1-en-1-yl)-N-(4-hydroxybenzyl)-3,7-dimethylnona-2,4,6,8-tetraenamide]",GI50,[6],467 nM
same,"fold more potent inhibition of growth than 13-CRA (isotretinoin), SEB-1",[6],85 fold
same,GI50,[2]; [10],1280 nM
same,"fold more potent inhibition of growth than 13-CRA (isotretinoin), NHAKs",[2],59.3 fold
